Laboratory results taken from US9180214B1, “Gonadotropin-releasing hormone receptor-targeting peptides and their use to treat and diagnose cancer” (STC.UNM, priority 2011, dated 2015).
Positions of bridges follow the written chain, without caps; N, C: chain ends. Non-standard residues stand in square brackets, D forms with d. Residues, ends and D or L forms follow the SMILES beside them. Chains are numbered I, II in the order given. *: point of attachment. DOTA = O=C(O)CN1CCN(CC(=O)O)CCN(CC(=O)*)CCN(CC(=O)O)CC1; pGlu = O=C1CC[C@@H](C(=O)O)N1; Ahx = NCCCCCC(=O)O

Key:
human GnRH receptor [1] = target: T1, human GnRH receptor (human, UniProt P30968 1-328); test: ratio of IC50 values from the competitive binding assay
T1 construct: whole, on cells; also called gonadotropin-releasing hormone (GnRH) receptor; ChemiScreen Human GnRH receptor membrane preparations
T1 sequence (looked up): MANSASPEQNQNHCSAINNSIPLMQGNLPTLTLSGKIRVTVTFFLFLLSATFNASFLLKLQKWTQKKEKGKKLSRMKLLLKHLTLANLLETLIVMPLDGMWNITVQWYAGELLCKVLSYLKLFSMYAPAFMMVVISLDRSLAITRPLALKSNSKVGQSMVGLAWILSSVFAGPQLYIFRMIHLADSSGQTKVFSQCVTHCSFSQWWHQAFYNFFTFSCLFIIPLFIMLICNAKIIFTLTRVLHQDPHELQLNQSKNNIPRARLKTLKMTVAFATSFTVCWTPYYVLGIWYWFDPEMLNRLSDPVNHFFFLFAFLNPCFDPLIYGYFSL

[2] = target: T2, human GnRH receptor membrane preparations (Homo sapiens, UniProt P30968); test: In vitro competitive GnRH receptor binding assay with ^125I-[D-Trp^6]-LH-RH
T2 construct: purchased Millipore, Inc (Billerica, Mass.)
T2 sequence (P30968 1-328): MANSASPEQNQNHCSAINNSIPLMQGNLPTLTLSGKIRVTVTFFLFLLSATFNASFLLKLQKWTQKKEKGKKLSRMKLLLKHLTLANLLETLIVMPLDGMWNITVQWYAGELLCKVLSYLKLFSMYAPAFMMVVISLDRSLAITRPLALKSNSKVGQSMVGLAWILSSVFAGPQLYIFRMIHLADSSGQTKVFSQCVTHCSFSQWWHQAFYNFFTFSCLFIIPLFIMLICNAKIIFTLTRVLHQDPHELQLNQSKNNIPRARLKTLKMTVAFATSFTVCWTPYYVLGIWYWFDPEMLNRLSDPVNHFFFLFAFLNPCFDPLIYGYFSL
Protocol: The GnRH receptor binding affinities (IC50 values) of DOTA-Ahx-(D-Lys^6-GnRH1), DOTA-Ahx-(D-Lys^6-GnRH2) and DOTA-Ahx-(L-Lys^6-GnRH3) were determined by in vitro competitive binding assay according to the published procedure^32 with modifications. Briefly, 5 μL of Millipore ChemiScreen™ human GnRH membrane preparations were incubated at 25° C. for 3 h with approximately 30,000 counts per minute (cpm) of ^125I-[D-Trp^6]-LH-RH in the presence of 10^−11 to 10^−5 M of each peptide in 95 μL of binding medium {50 mM N-(2-hydroxyethyl)-piperazine-N′-(2-ethanesulfonic acid), 5 mM MgCl2, 1 mM CaCl2, pH 7.4, 0.2% bovine serum albumin (BSA)}. After the incubation, 800 μL of ice-cold washing buffer (50 mM N-(2-hydroxyethyl)-piperazine-N′-(2-ethanesulfonic acid), 500 mM NaCl, pH 7.4, 0.1% BSA) was added to each mixture. Each resulting mixture was filtered through a GF/C filter (Whatman, Clifton, N.J.) pre-soaked in 1% polyethylenimine. Each filter was rinsed with 1 mL of ice-cold washing buffer for three times. The activities on the filters were measured in a Wallac 1480 automated gamma counter (PerkinElmer, Waltham, Mass.). The IC50 value of each peptide was calculated using Prism software (GraphPad Software, La Jolla, Calif.).

[3] = tested on: DU145 human prostate cancer-xenografted nude mice; test: Biodistribution in DU145 human prostate cancer-xenografted nude mice; assay type: in vivo, mouse; conditions: DU145 xenograft
Protocol: All the animal studies were conducted in compliance with Institutional Animal Care and Use Committee approval. The pharmacokinetics of ^111In-DOTA-Ahx-(D-Lys^6-GnRH1) was determined in DU145 human prostate cancer-xenografted male athymic nude mice (Harlan, Indianapolis, Ind.). The nude mice were subcutaneously inoculated with 1×10^7 DU145 cells on the right flank of each mouse to generate DU145 xenografted tumors. The tumor weights reached approximately 0.3 g at 18 days post cell inoculation. Each tumor-bearing mouse was injected with 0.037 MBq of 111In-DOTA-Ahx-(D-Lys6-GnRH1) via the tail vein. Groups of 5 mice were sacrificed at 0.5, 2, 4 and 24 h post-injection, and tumors and organs of interest were harvested, weighed and counted. Blood values were taken as 6.5% of the whole-body weight. To determine the tumor imaging property of ^111In-DOTA-Ahx-(D-Lys^6-GnRH1), approximately 33.3 MBq of ^111In-DOTA-Ahx-(D-Lys^6-GnRH1) was injected into a DU145 human prostate cancer-xenografted nude mouse (18 days post the cell inoculation) via the tail vein. The mouse was sacrificed for small animal SPECT/CT (Nano-SPECT/CT®, Bioscan) imaging at 0.5 h post-injection. The CT imaging was immediately followed by the whole-body SPECT imaging. The SPECT scans of 24 projections were acquired. Reconstructed SPECT and CT data were visualized and co-registered using InVivoScope (Bioscan, Washington D.C.).

[4] = tested on: MDA-MB-231 human breast cancer-xenografted nude mice; test: Biodistribution in MDA-MB-231 human breast cancer-xenografted nude mice; assay type: in vivo, mouse; conditions: MDA-MB-231 xenograft
Protocol: All the animal studies were conducted in compliance with Institutional Animal Care and Use Committee approval. The pharmacokinetics of ^111In-DOTA-Ahx-(D-Lys^6-GnRH1) was determined in MDA-MB-231 human breast cancer-xenografted female athymic nude mice (Harlan, Indianapolis, Ind.). The nude mice were subcutaneously inoculated with 1×10^7 MDA-MB-231 cells on the right flank of each mouse to generate MDA-MB-231 xenografted tumors. The tumor weights reached approximately 0.3 g at 18 days post cell inoculation. Each tumor-bearing mouse was injected with 0.037 MBq of ^111In-DOTA-Ahx-(D-Lys^6-GnRH1) via the tail vein. Groups of 5 mice were sacrificed at 0.5, 2, 4 and 24 h post-injection, and tumors and organs of interest were harvested, weighed and counted. Blood values were taken as 6.5% of the whole-body weight.

[5] = Urinary metabolites by RP-HPLC in DU145 xenografted nude mouse; assay type: in vivo; conditions: 2 h post-injection
Protocol: One hundred microliters of HPLC purified ^111In-DOTA-Ahx-(D-Lys^6-GnRH1) (2.4 MBq) was injected into a DU145 human prostate cancer-xenografted nude mouse through the tail vein. At 2 h post-injection, the mouse was sacrificed and the urine was collected for metabolites analysis. The urine was centrifuged at 16,000 g for 5 min prior to the HPLC analysis. The radioactive metabolites in the urine were analyzed by injecting aliquots of the urine into HPLC. A 20-minute gradient of 15-25% acetonitrile/20 mM HCl was used for the urine analysis.

[6] = In vitro mouse serum stability by RP-HPLC; assay type: in vitro ADME; conditions: 37° C., 2 h
Protocol: In vitro serum stability of ^111In-DOTA-Ahx-(D-Lys^6-GnRH1) was determined by incubation in mouse serum at 37° C. for 2 h and monitored for degradation by RP-HPLC. Briefly, 100 μL of HPLC-purified ^111In-DOTA-Ahx-(D-Lys^6-GnRH1) solution (˜3.7 MBq) was added into 100 μL of mouse serum (Sigma-Aldrich Corp, St. Louis, Mo.) and incubated at 37° C. for 2 h. After the incubation, 200 μL of a mixture of ethanol and acetonitrile (V:V=1:1) was added to precipitate the serum. The resulting mixture was centrifuged at 10,000 g for 5 min to collect the supernatant. The supernatant was purged with N2 gas for 30 min to remove the ethanol and acetonitrile. The resulting sample was mixed with 500 μL of water and injected into RP-HPLC for analysis using the gradient described above.

human GnRH receptor [7] = target: T1, human GnRH receptor; test: competitive binding against 125I-[D-Trp6]-LH-RH on human GnRH receptor membrane preparations, filter assay
Protocol: The GnRH receptor binding affinities (IC$50$ values) of DOTA-Ahx-(D-Lys^6-GnRH1), DOTA-Ahx-(D-Lys^6-GnRH2) and DOTA-Ahx-(L-Lys^6-GnRH3) were determined by in vitro competitive binding assay according to the published procedure[32] with modifications. […] After the incubation, 800 μL of ice-cold washing buffer (50 mM N-(2-hydroxyethyl)-piperazine-N'-(2-ethanesulfonic acid), 500 mM NaCl, pH 7.4, 0.1% BSA) was added to each mixture. Each resulting mixture was filtered through a GF/C filter (Whatman, Clifton, N.J.) pre-soaked in 1% polyethylenimine. Each filter was rinsed with 1 mL of ice-cold washing buffer for three times. The activities on the filters were measured in a Wallac 1480 automated gamma counter (PerkinElmer, Waltham, Mass.). The IC$50$ value of each peptide was calculated using Prism software (GraphPad Software, La Jolla, Calif.).

## DOTA-Ahx-(D-Lys^6-GnRH2) (peptide)
Human GnRH receptor [1]
  fold decrease of GnRH receptor binding affinity against DOTA-Ahx-(D-Lys^6-GnRH1): 293 fold

## CC(C)C[C@H](NC(=O)[C@@H](CCCCNC(=O)CCCCCNC(=O)CN1CCN(CC(=O)O)CCN(CC(=O)O)CCN(CC(=O)O)CC1)NC(=O)[C@H](Cc1ccc(O)cc1)NC(=O)[C@H](CO)NC(=O)[C@H](Cc1c[nH]c2ccccc12)NC(=O)[C@H](Cc1c[nH]cn1)NC(=O)[C@@H]1CCC(=O)N1)C(=O)N[C@@H](CCCNC(=N)N)C(=O)N1CCC[C@H]1C(=O)NCC(N)=O [DOTA-Ahx-(D-Lys^6-GnRH1)]
[2]
  GnRH receptor binding affinity (in words): low nanomolar

## CC(C)C[C@H](NC(=O)[C@@H](CCCCNC(=O)CCCCCNC(=O)CN1CCN(CC(=O)O)CCN(CC(=O)O)CCN(CC(=O)O)CC1)NC(=O)[C@H](Cc1ccc(O)cc1)NC(=O)[C@H](CO)NC(=O)[C@H](Cc1c[nH]c2ccccc12)NC(=O)[C@H](Cc1cnc[nH]1)NC(=O)[C@@H]1CCC(=O)N1)C(=O)N[C@@H](CCCNC(=N)N)C(=O)N1CCC[C@H]1C(=O)NCC(N)=O [^111In-DOTA-Ahx-(D-Lys^6-GnRH1), metal not drawn]
[3]; 0.5 h post-injection
  Kidneys, percent injected dose/gram: 10.93±1.53 % ID/g
  Tumor, percent injected dose/gram: 1.27±0.40 % ID/g
[3]; 2 h post-injection
  Kidneys, percent injected dose/gram: 6.41±0.34 % ID/g
  Tumor, percent injected dose/gram: 0.55±0.23 % ID/g
[3]; 4 h post-injection
  Kidneys, percent injected dose/gram: 7.29±0.90 % ID/g
  Tumor, percent injected dose/gram: 0.38±0.16 % ID/g
[3]; 24 h post-injection
  Kidneys, percent injected dose/gram: 2.72±0.64 % ID/g
  Tumor, percent injected dose/gram: 0.31±0.09 % ID/g
[4]; 0.5 h post-injection
  Kidneys, percent injected dose/gram: 15.39±4.59 % ID/g
  Tumor, percent injected dose/gram: 1.76±0.58 % ID/g
[4]; 2 h post-injection
  Blood, percent injected dose/gram: 0.20±0.03 % ID/g
  Kidneys, percent injected dose/gram: 8.88±1.26 % ID/g
  Liver, percent injected dose/gram: 0.77±0.06 % ID/g
  Tumor, percent injected dose/gram: 0.29±0.10 % ID/g
[4]; 4 h post-injection
  Kidneys, percent injected dose/gram: 9.28±1.18 % ID/g
  Liver, percent injected dose/gram: 0.97±0.13 % ID/g
  Tumor, percent injected dose/gram: 0.15±0.05 % ID/g
[4]; 24 h post-injection
  Kidneys, percent injected dose/gram: 4.43±1.67 % ID/g
  Liver, percent injected dose/gram: 0.59±0.16 % ID/g
  Tumor, percent injected dose/gram: 0.18±0.07 % ID/g
[5]
  metabolized into two compounds with higher polarity (urine): 90.2%
  remained intact in urine: 9.8%
[6]
  stability in mouse serum: stable

## CC(C)C[C@H](NC(=O)[C@@H](CCCCNC(=O)[C@H](Cc1ccc(O)cc1)NC(=O)[C@H](CO)NC(=O)[C@H](Cc1c[nH]c2ccccc12)NC(=O)[C@H](Cc1c[nH]cn1)NC(=O)[C@@H]1CCC(=O)N1)NC(=O)CCCCCNC(=O)CN1CCN(CC(=O)O)CCN(CC(=O)O)CCN(CC(=O)O)CC1)C(=O)N[C@@H](CCCNC(=N)N)C(=O)N1CCC[C@H]1C(=O)NCC(N)=O [DOTA-Ahx-(D-Lys^6-GnRH2)] (I: {DOTA-Ahx}-[dK]LRPG-NH2 / II: [pGlu]HWSY; amide I:1-II:C)
[2]
  decrease of GnRH receptor binding affinity versus DOTA-Ahx-(D-Lys^6-GnRH1): 293 fold

## CC(C)C[C@H](NC(=O)[C@H](CCCCNC(=O)CCCCCNC(=O)CN1CCN(CC(=O)O)CCN(CC(=O)O)CCN(CC(=O)O)CC1)NC(=O)[C@H](Cc1ccc(O)cc1)NC(=O)[C@H](CO)NC(=O)[C@H](Cc1c[nH]c2ccccc12)NC(=O)[C@H](Cc1c[nH]cn1)NC(=O)[C@@H]1CCC(=O)N1)C(=O)N[C@@H](CCCNC(=N)N)C(=O)N1CCC[C@H]1C(=O)NCC(N)=O [DOTA-Ahx-(L-Lys^6-GnRH3)]
[2]
  decrease of GnRH receptor binding affinity versus DOTA-Ahx-(D-Lys^6-GnRH1): 119 fold

B1: DOTA-Ahx-(L-Lys^6-GnRH3) (peptide)
peptide: XHWSYKLRPG
modifications: pGlu at 1; L-Lys at 6 carrying DOTA-Ahx on its epsilon amino group; C-terminal amide
Human GnRH receptor [1]
  fold decrease of GnRH receptor binding affinity against DOTA-Ahx-(D-Lys^6-GnRH1): 119 fold

B2: DOTA-Ahx-(D-Lys^6-GnRH1) (peptide)
peptide: XHWSYKLRPG
modifications: pGlu at 1; D-Lys at 6 carrying DOTA-Ahx (aminohexanoic acid linker) on its epsilon amino group; C-terminal amide (Gly10-NH2)
Human GnRH receptor [7]
  IC50: 36.1 nM
